Assay results taken from patent US9890142B2, “PDE4 inhibitor” (Meiji Seika Pharma Co., Ltd., priority 2013, dated 2018).

Tested on: PDE4
Assay: Evaluation of PDE4 inhibition (scintillation proximity assay)
Format: biochemical
Details: inhibition rate relative to control, test compound at 1 μM
In short: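 PDE4 was incubated 120 min at room temperature with [3H]-cAMP and compound in 50 mM Tris-HCl pH 7.5, 8.3 mM MgCl2, 1.7 mM EDTA, 0.3 mg/mL BSA. Product captured on ZnSO4-containing YSi-SPA beads and counted; inhibition calculated against DMSO control after no-enzyme blank subtraction.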

C[C@@H]1CNCCN1c1nc2c(C(F)(F)F)c(Cl)cc(-n3cccn3)c2o1 [Example 180, (R)-5-Chloro-2-(2-methylpiperazin-1-yl)=7-(1H-pyrazol-1-yl)-4-(trifluoromethyl)benzoxazole]
PDE4 inhibitory activity (1 μM (%)): 43%
